Holding throughout (format): biochemical
The target of test [1] is T1, recombinant human HSD2 (Homo sapiens, UniProt P37059).
T1 construct: made in house; host or cells: Sf9 insect cells
T1 sequence (P37059 1-387): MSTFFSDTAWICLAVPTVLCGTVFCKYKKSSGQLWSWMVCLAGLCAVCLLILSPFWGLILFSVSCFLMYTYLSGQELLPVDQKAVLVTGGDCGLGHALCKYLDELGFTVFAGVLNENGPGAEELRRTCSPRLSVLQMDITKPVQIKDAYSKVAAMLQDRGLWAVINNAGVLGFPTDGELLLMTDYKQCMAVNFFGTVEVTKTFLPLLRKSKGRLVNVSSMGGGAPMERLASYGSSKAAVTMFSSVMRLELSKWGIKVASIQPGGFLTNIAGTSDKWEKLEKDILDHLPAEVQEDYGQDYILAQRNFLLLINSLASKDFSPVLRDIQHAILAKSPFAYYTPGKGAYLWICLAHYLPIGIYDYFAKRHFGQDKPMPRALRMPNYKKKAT
Put plainly: HSD2 inhibition, HPLC assay of [3H]-E2 to [3H]-E1 conversion. On the procedure: The inhibition was determined by HPLC using recombinant human HSD1 and HSD2 proteins as described in a prior study. In short, recombinant human HSD1 and HSD2 were produced in Sf9-insect cells. […]. After incubation, the reaction was stopped by addition of […] 10% trichloroacetic acid per sample. After incubation the substrate and the product of enzymatic conversion [3H]-E1 and [3H]-E2 were separated and quantified by HPLC (Alliance 2790, Waters, Milford, MA) connected to an online counter (Packard Flow Scintillation Analyser; Perkin Elmer Inc., Waltham, […]). The ratio of [3H]-E1 converted to [3H]-E2 or vice versa determines the conversion percentage of the samples. Inhibition was measured in three concentrations (100 nM, 1, and 5 µM) in order to follow the progression of inhibition efficiencies. Inhibition efficiencies of the tested inhibitors were calculated by comparing the conversion percentages of the samples including inhibitors with those of conversion controls (without inhibitors).

The target in test [2] is T2, Aromatase (CYP19A1), human placental microsomes (Homo sapiens, UniProt P11511).
T2 construct: by using human placental microsomes; from tissue; host or cells: human placental microsomes
T2 sequence (P11511 1-503): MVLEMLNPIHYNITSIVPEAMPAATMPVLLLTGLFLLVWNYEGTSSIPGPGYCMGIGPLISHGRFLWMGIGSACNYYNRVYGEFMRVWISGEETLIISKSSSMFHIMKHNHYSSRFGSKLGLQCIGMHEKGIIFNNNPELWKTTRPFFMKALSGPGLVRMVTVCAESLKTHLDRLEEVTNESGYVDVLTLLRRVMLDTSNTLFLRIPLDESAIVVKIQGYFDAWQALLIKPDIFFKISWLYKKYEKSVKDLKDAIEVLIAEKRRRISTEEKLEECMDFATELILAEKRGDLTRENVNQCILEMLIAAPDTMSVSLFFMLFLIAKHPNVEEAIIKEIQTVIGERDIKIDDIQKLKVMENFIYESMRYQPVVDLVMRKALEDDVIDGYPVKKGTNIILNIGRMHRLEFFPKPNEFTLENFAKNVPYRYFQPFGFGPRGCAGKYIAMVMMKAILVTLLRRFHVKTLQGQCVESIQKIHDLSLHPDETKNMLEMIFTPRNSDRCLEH
Put plainly: Aromatase activity, [3H]-H2O release from [3H]-androstenedione. Particulars: 50 nM [3H]-androstenedione; inhibitor 60–1000 nM; read-out: Aromatase inhibition ∼ pIC50 (converted). On the procedure:
Aromatase (CYP19A1) activity was measured as described previously[22] by using human placental microsomes and 50 nM [3H]-androstenedione as a substrate and inhibitor concentrations in the range of 60–1000 nM. Aromatase activities were measured as released [3H]-H2O in Optiphase Hisafe 2 scintillation liquid (Perkin Elmer, Waltham, MA) with a Wallac 1450 MicroBeta Trilux scintillation counter (Perkin Elmer, Waltham, MA). As a positive control for aromatase inhibition, 1 µM finrozole (generous gift from Olavi Pelkonen, University of Oulu, Finland) was used.

Test [3] deals with T3, heterologously expressed human CYP1A2 enzyme (Homo sapiens, UniProt P05177).
T3 construct: purchased Corning Inc., Corning, NY
T3 sequence (P05177 1-516): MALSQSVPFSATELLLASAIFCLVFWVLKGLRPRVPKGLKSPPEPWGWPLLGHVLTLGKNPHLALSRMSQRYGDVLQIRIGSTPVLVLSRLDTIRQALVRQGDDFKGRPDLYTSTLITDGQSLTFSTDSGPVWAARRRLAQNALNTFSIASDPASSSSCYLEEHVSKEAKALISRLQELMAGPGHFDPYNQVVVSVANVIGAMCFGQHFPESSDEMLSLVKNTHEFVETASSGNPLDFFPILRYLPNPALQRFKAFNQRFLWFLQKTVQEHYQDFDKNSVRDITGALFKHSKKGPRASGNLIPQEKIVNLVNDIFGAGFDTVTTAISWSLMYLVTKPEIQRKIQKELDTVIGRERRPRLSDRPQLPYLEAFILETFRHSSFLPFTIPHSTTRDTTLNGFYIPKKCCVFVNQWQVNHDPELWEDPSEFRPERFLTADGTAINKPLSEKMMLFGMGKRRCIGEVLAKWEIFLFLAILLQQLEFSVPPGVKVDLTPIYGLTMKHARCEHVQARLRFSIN
Description: CYP1A2 inhibition. As to conditions: read-out: CYP1A2 inhibition ∼ pIC50 (converted). On the procedure:
Inhibition of CYP1A2 activity was determined using commercial heterologously expressed human CYP1A2 enzyme (Corning Inc., Corning, NY) essentially as described previously.

The target in test [4] is T4, MAO-B (Homo sapiens, UniProt P27338).
T4 construct: purchased Sigma-Aldrich (St. Louis, MO)
T4 sequence (P27338 1-520): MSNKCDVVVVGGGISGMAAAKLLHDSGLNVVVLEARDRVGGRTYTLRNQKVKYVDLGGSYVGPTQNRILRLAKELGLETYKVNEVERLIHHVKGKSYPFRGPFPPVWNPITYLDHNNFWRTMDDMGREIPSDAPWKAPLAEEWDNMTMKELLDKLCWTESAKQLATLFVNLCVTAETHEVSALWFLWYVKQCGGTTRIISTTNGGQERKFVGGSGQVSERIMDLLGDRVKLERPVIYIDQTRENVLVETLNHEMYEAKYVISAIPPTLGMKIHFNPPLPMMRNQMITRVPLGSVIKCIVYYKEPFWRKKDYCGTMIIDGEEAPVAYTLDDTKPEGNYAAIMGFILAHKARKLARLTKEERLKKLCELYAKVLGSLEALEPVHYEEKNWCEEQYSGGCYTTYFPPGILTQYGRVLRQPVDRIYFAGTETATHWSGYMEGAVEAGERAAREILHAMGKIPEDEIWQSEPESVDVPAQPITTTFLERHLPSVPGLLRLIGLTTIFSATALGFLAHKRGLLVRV
Put plainly: MAO-B inhibition, continuous spectrophotometric assay. On the procedure: The protocol of continuous spectrophotometric assay by Holt et al. was first used to determine the activity of the proteins. […] The protein was first incubated for 30 min at 37 °C in the chromogenic solution and then the substrate tyramine was introduced at 0.5 mM final plate concentration completing the assay volume. […] The assay should produce absorbance change of ∼0.35[23]. […] These protein concentrations were selected to be used to analyse the molecules 1–9. The analysis conditions followed the above-described assay protocol[23] and the activity of tested molecules was measured at 100 µM for MAO-A and at 10 µM for MAO-B. The analysis was performed as single point measurements and the signal was read by the same instrument at the expected assay maximum indicated by the activity measurements, at 30 min for MAO-A and at 2 h for MAO-B, respectively. […] The observed activity was calculated as inhibition percentage (Table 1).

Test [5] addresses T5, recombinant human HSD1 (Homo sapiens, UniProt P14061).
T5 construct: made in house; host or cells: Sf9 insect cells
T5 sequence (P14061 1-328): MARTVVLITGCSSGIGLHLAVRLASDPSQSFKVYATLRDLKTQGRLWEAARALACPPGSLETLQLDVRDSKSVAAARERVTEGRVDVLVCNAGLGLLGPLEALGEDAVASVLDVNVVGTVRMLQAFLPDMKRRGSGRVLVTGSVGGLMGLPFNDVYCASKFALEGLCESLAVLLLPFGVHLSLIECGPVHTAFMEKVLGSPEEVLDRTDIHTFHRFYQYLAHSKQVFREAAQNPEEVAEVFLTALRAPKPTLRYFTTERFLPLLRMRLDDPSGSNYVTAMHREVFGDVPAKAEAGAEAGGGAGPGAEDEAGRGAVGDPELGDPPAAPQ
Put plainly: HSD1 inhibition, HPLC assay of [3H]-E1 to [3H]-E2 conversion. On the procedure:
The inhibition was determined by HPLC using recombinant human HSD1 and HSD2 proteins as described in a prior study. In short, recombinant human HSD1 and HSD2 were produced in Sf9-insect cells. […] After incubation, the reaction was stopped by addition of […] 10% trichloroacetic acid per sample. […] The ratio of [3H]-E1 converted to [3H]-E2 or vice versa determines the conversion percentage of the samples. Inhibition was measured in three concentrations (100 nM, 1, and 5 µM) in order to follow the progression of inhibition efficiencies. Inhibition efficiencies of the tested inhibitors were calculated by comparing the conversion percentages of the samples including inhibitors with those of conversion controls (without inhibitors).

Molecules are shown by their SMILES. Where only a bound is given, the exact number is not on record here.

A word on the inhibition: it is the relative decrease from the control value, in per cent. Turning to `O=c1c(Oc2ccc(Cl)cc2)coc2cc(O)cc(O)c12` [HM2001, 3–(4-Chlorophenoxy)-5,7-dihydroxychromen-4-one, reference compound], in test [1] (100 nM, control), the inhibition at 0.1 µM came to 62.3%. The inhibition at 1 µM in test [1] (read-out: HSD2 inhibition at 1 µM) is 100%.

`O=c1oc2ccccc2cc1-n1ccnc1` [Compound 10, 3–(1H-imidazol-1-yl)-2H-chromen-2-one]: the IC50 was 77.6 nM in test [2]; 115 nM in test [3]; greater than 5010 nM in test [5] (estimated from three measurements at 1 µM, average ± standard error, read-out: HSD1 inhibition ∼ pIC50 (converted)). Besides, the “MAO-B inhibition (in words)” value in test [4] was “blocking neither HSD1 nor MAO-B”. Also, the inhibition at 10 µM in test [4] (10 µM, single point, read at 2 h, read-out: MAO-B inhibition at 10 µM) is 11%. Further, in test [5], the “HSD1 inhibition (in words)” value is “blocking neither HSD1 nor MAO-B”. Besides, in test [5] (100 nM, average of two measurements, except for compounds 8 and 9, read-out: HSD1 inhibition at 100 nM), the inhibition at 0.1 µM amounted to 1%. Moreover, in test [5] (1 µM, average of three measurements, except for compounds 8 and 9, read-out: HSD1 inhibition at 1 µM), the inhibition at 1 µM is 1%.

Source of the values: article PMC6010071, “Blocking oestradiol synthesis pathways with potent and selective coumarin derivatives” (Journal of Enzyme Inhibition and Medicinal Chemistry, 2018).
